# Experimental data published in PubChem BioAssay (NCI).
#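 Interpolation was linear, between the two tested concentrations surrounding the appropriate level; five concentrations were tested over 48 hours in 96-well plates. Here, GI50 denotes the concentration required for 50% inhibition of growth. Definition used: TGI = concentration required for complete inhibition of growth.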
# Key:
# Experiment in all cases: NCI anticancer screen, dose series, 48 h
# 786-0 renal = test system: 786-0 renal
# A498 renal = test system: A498 renal
# A549 NSCLC = test system: A549 NSCLC
# ACHN renal = test system: ACHN renal
# CAKI-1 renal = test system: CAKI-1 renal
# CCRF-CEM leukemia = test system: CCRF-CEM leukemia
# COLO 205 colon = test system: COLO 205 colon
# DLD-1 colon = test system: DLD-1 colon
# DMS 114 small cell lung = test system: DMS 114 small cell lung
# DMS 273 small cell lung = test system: DMS 273 small cell lung
# EKVX NSCLC = test system: EKVX NSCLC
# HCC-2998 colon = test system: HCC-2998 colon
# HCT-15 colon = test system: HCT-15 colon
# HOP-62 NSCLC = test system: HOP-62 NSCLC
# HT29 colon = test system: HT29 colon
# IGROV1 ovarian = test system: IGROV1 ovarian
# K-562 leukemia = test system: K-562 leukemia
# KM12 colon = test system: KM12 colon
# KM20L2 colon = test system: KM20L2 colon
# LOX IMVI melanoma = test system: LOX IMVI melanoma
# LXFL 529 NSCLC = test system: LXFL 529 NSCLC
# M14 melanoma = test system: M14 melanoma
# M19-MEL melanoma = test system: M19-MEL melanoma
# MALME-3M melanoma = test system: MALME-3M melanoma
# MOLT-4 leukemia = test system: MOLT-4 leukemia
# NCI-H23 lung = test system: NCI-H23 lung
# NCI-H460 lung = test system: NCI-H460 lung
# OVCAR-3 ovarian = test system: OVCAR-3 ovarian
# OVCAR-4 ovarian = test system: OVCAR-4 ovarian
# OVCAR-5 ovarian = test system: OVCAR-5 ovarian
# OVCAR-8 ovarian = test system: OVCAR-8 ovarian
# RPMI-8226 leukemia = test system: RPMI-8226 leukemia
# RXF 393 renal = test system: RXF 393 renal
# SF-268 CNS = test system: SF-268 CNS
# SF-295 CNS = test system: SF-295 CNS
# SF-539 CNS = test system: SF-539 CNS
# SK-MEL-2 melanoma = test system: SK-MEL-2 melanoma
# SK-MEL-28 melanoma = test system: SK-MEL-28 melanoma
# SK-MEL-5 melanoma = test system: SK-MEL-5 melanoma
# SK-OV-3 ovarian = test system: SK-OV-3 ovarian
# SN12C renal = test system: SN12C renal
# SNB-19 CNS = test system: SNB-19 CNS
# SNB-75 CNS = test system: SNB-75 CNS
# SNB-78 CNS = test system: SNB-78 CNS
# SW-620 colon = test system: SW-620 colon
# TK-10 renal = test system: TK-10 renal
# U251 CNS = test system: U251 CNS
# UACC-257 melanoma = test system: UACC-257 melanoma
# UACC-62 melanoma = test system: UACC-62 melanoma
# XF 498 CNS = test system: XF 498 CNS
# BT-549 breast = test system: BT-549 breast
# DU-145 prostate = test system: DU-145 prostate
# HCT-116 colon = test system: HCT-116 colon
# HL-60(TB) leukemia = test system: HL-60(TB) leukemia
# HOP-92 NSCLC = test system: HOP-92 NSCLC
# HS 578T breast = test system: HS 578T breast
# MCF7 breast = test system: MCF7 breast
# MDA-MB-231 breast = test system: MDA-MB-231 breast
# MDA-MB-435 = test system: MDA-MB-435
# MDA-N = test system: MDA-N
# NCI-H226 lung = test system: NCI-H226 lung
# NCI-H522 lung = test system: NCI-H522 lung
# NCI/ADR-RES ovarian = test system: NCI/ADR-RES ovarian
# PC-3 prostate = test system: PC-3 prostate
# SR leukemia = test system: SR leukemia
# T-47D breast = test system: T-47D breast
# UO-31 renal = test system: UO-31 renal
compound,measurement,setting,value
CCP(C)(C)=O,TGI,786-0 renal,> 100 µM
same,TGI,A498 renal,> 100 µM
same,TGI,A549 NSCLC,> 100 µM
same,TGI,ACHN renal,> 100 µM
same,TGI,CAKI-1 renal,> 100 µM
same,TGI,CCRF-CEM leukemia,> 100 µM
same,TGI,COLO 205 colon,> 100 µM
same,TGI,DLD-1 colon,> 100 µM
same,TGI,DMS 114 small cell lung,> 100 µM
same,TGI,DMS 273 small cell lung,> 100 µM
same,TGI,EKVX NSCLC,> 100 µM
same,TGI,HCC-2998 colon,> 100 µM
same,TGI,HCT-15 colon,> 100 µM
same,TGI,HOP-62 NSCLC,> 100 µM
same,TGI,HT29 colon,> 100 µM
same,TGI,IGROV1 ovarian,> 100 µM
same,TGI,K-562 leukemia,> 100 µM
same,TGI,KM12 colon,> 100 µM
same,TGI,KM20L2 colon,> 100 µM
same,TGI,LOX IMVI melanoma,> 100 µM
same,TGI,LXFL 529 NSCLC,> 100 µM
same,TGI,M14 melanoma,> 100 µM
same,TGI,M19-MEL melanoma,> 100 µM
same,TGI,MALME-3M melanoma,> 100 µM
same,TGI,MOLT-4 leukemia,> 100 µM
same,TGI,NCI-H23 lung,> 100 µM
same,TGI,NCI-H460 lung,> 100 µM
same,TGI,OVCAR-3 ovarian,> 100 µM
same,TGI,OVCAR-4 ovarian,> 100 µM
same,TGI,OVCAR-5 ovarian,> 100 µM
same,TGI,OVCAR-8 ovarian,> 100 µM
same,TGI,RPMI-8226 leukemia,> 100 µM
same,TGI,RXF 393 renal,> 100 µM
same,TGI,SF-268 CNS,> 100 µM
same,TGI,SF-295 CNS,> 100 µM
same,TGI,SF-539 CNS,> 100 µM
same,TGI,SK-MEL-2 melanoma,> 100 µM
same,TGI,SK-MEL-28 melanoma,> 100 µM
same,TGI,SK-MEL-5 melanoma,> 100 µM
same,TGI,SK-OV-3 ovarian,> 100 µM
same,TGI,SN12C renal,> 100 µM
same,TGI,SNB-19 CNS,> 100 µM
same,TGI,SNB-75 CNS,> 100 µM
same,TGI,SNB-78 CNS,> 100 µM
same,TGI,SW-620 colon,> 100 µM
same,TGI,TK-10 renal,> 100 µM
same,TGI,U251 CNS,> 100 µM
same,TGI,UACC-257 melanoma,> 100 µM
same,TGI,UACC-62 melanoma,> 100 µM
same,TGI,XF 498 CNS,> 100 µM
COC(=O)/C=C/C(=O)Nc1cc(Cl)c(Cl)cc1CC(=O)N(C)[C@H]1CCCC[C@@H]1N1CCCC1,TGI,786-0 renal,22.1 µM
same,TGI,A498 renal,28.9 µM
same,TGI,A549 NSCLC,> 54.2 µM
same,TGI,ACHN renal,14.6 µM
same,TGI,BT-549 breast,26.8 µM
same,TGI,CAKI-1 renal,38.2 µM
same,TGI,CCRF-CEM leukemia,> 100 µM
same,TGI,COLO 205 colon,7.21 µM
same,TGI,DU-145 prostate,19.9 µM
same,TGI,EKVX NSCLC,29.2 µM
same,TGI,HCC-2998 colon,21.2 µM
same,TGI,HCT-116 colon,23.3 µM
same,TGI,HCT-15 colon,28 µM
same,TGI,HL-60(TB) leukemia,5.33 µM
same,TGI,HOP-62 NSCLC,33.3 µM
same,TGI,HOP-92 NSCLC,18.7 µM
same,TGI,HS 578T breast,36 µM
same,TGI,HT29 colon,41 µM
same,TGI,IGROV1 ovarian,22 µM
same,TGI,K-562 leukemia,> 33.5 µM
same,TGI,KM12 colon,> 56 µM
same,TGI,LOX IMVI melanoma,24.4 µM
same,TGI,M14 melanoma,32.3 µM
same,TGI,MALME-3M melanoma,20.5 µM
same,TGI,MCF7 breast,13.6 µM
same,TGI,MDA-MB-231 breast,28.9 µM
same,TGI,MDA-MB-435,> 39.3 µM
same,TGI,MDA-N,25.2 µM
same,TGI,MOLT-4 leukemia,13.8 µM
same,TGI,NCI-H226 lung,31.7 µM
same,TGI,NCI-H23 lung,30.4 µM
same,TGI,NCI-H460 lung,31.9 µM
same,TGI,NCI-H522 lung,7.89 µM
same,TGI,NCI/ADR-RES ovarian,35.1 µM
same,TGI,OVCAR-3 ovarian,16.3 µM
same,TGI,OVCAR-4 ovarian,> 41.6 µM
same,TGI,OVCAR-5 ovarian,32 µM
same,TGI,OVCAR-8 ovarian,16.3 µM
same,TGI,PC-3 prostate,17.9 µM
same,TGI,RPMI-8226 leukemia,19.2 µM
same,TGI,RXF 393 renal,17.7 µM
same,TGI,SF-268 CNS,35.5 µM
same,TGI,SF-295 CNS,36.2 µM
same,TGI,SF-539 CNS,13.3 µM
same,TGI,SK-MEL-2 melanoma,22 µM
same,TGI,SK-MEL-28 melanoma,33.7 µM
same,TGI,SK-MEL-5 melanoma,22.9 µM
same,TGI,SK-OV-3 ovarian,37.8 µM
same,TGI,SN12C renal,25.1 µM
same,TGI,SNB-19 CNS,37.7 µM
same,TGI,SNB-75 CNS,26.8 µM
same,TGI,SR leukemia,> 28.3 µM
same,TGI,SW-620 colon,26.7 µM
same,TGI,T-47D breast,28.5 µM
same,TGI,TK-10 renal,11.1 µM
same,TGI,U251 CNS,31.6 µM
same,TGI,UACC-257 melanoma,13 µM
same,TGI,UACC-62 melanoma,28.4 µM
same,TGI,UO-31 renal,21.3 µM
C=C1C(=O)OC2/C=C(\C)CC/C=C(\C)CC(OC(=O)/C(=C/CO)CO)[C@@H]12 (stereo partly drawn),TGI,786-0 renal,11.5 µM
same,TGI,A498 renal,34.6 µM
same,TGI,A549 NSCLC,57.3 µM
same,TGI,ACHN renal,19.3 µM
same,TGI,BT-549 breast,26.5 µM
same,TGI,CAKI-1 renal,14.1 µM
same,TGI,CCRF-CEM leukemia,6.75 µM
same,TGI,COLO 205 colon,5.4 µM
same,TGI,DU-145 prostate,42.3 µM
same,TGI,EKVX NSCLC,29 µM
same,TGI,HCC-2998 colon,33.5 µM
same,TGI,HCT-116 colon,10.7 µM
same,TGI,HCT-15 colon,29.7 µM
same,TGI,HL-60(TB) leukemia,12.6 µM
same,TGI,HOP-92 NSCLC,13.5 µM
same,TGI,HS 578T breast,63.4 µM
same,TGI,HT29 colon,20.6 µM
same,TGI,IGROV1 ovarian,26.1 µM
same,TGI,K-562 leukemia,9.21 µM
same,TGI,KM12 colon,35.1 µM
same,TGI,LOX IMVI melanoma,31.1 µM
same,TGI,M14 melanoma,11.4 µM
same,TGI,MALME-3M melanoma,5.81 µM
same,TGI,MCF7 breast,22.9 µM
same,TGI,MDA-MB-231 breast,28.2 µM
same,TGI,MDA-MB-435,19 µM
same,TGI,MDA-N,20.2 µM
same,GI50,MOLT-4 leukemia,1.92 µM
same,TGI,MOLT-4 leukemia,5.55 µM
same,TGI,NCI-H226 lung,> 80.4 µM
same,TGI,NCI-H23 lung,29.4 µM
same,TGI,NCI-H460 lung,48.8 µM
same,TGI,NCI-H522 lung,3.5 µM
same,TGI,NCI/ADR-RES ovarian,59.6 µM
same,TGI,OVCAR-3 ovarian,18.4 µM
same,TGI,OVCAR-4 ovarian,27.5 µM
same,TGI,OVCAR-5 ovarian,31.3 µM
same,TGI,OVCAR-8 ovarian,4.07 µM
same,TGI,PC-3 prostate,31.8 µM
same,TGI,RPMI-8226 leukemia,5.74 µM
same,TGI,RXF 393 renal,21.3 µM
same,TGI,SF-268 CNS,45 µM
same,TGI,SF-295 CNS,> 100 µM
same,TGI,SF-539 CNS,26.3 µM
same,TGI,SK-MEL-2 melanoma,34.6 µM
same,TGI,SK-MEL-28 melanoma,31.2 µM
same,TGI,SK-MEL-5 melanoma,26.1 µM
same,TGI,SK-OV-3 ovarian,> 100 µM
same,TGI,SN12C renal,27.2 µM
same,TGI,SNB-19 CNS,> 85.7 µM
same,TGI,SNB-75 CNS,29.8 µM
same,TGI,SR leukemia,> 23.8 µM
same,TGI,SW-620 colon,3.36 µM
same,TGI,T-47D breast,15.9 µM
same,TGI,TK-10 renal,15.8 µM
same,TGI,U251 CNS,4.71 µM
same,TGI,UACC-257 melanoma,24.2 µM
same,TGI,UACC-62 melanoma,34.2 µM
same,TGI,UO-31 renal,23.9 µM
